Measured values reported in PubChem BioAssay AID334 (DTP/NCI, 2004).
Values joined by “and” are separate entries in the source; they are usually repeats but may differ in a detail not shown here. Equal values may be shown once. Toxic doses and inconclusive results are not listed. The calls were made as follows: active = survival T/C of 150% or more; inactive = T/C below 125% in these data.

Tested on: CD2F1 mice, intracerebral P388 leukemia, median survival T/C%
Experiment: NCI In Vivo Anticancer Drug Screen. Data for tumor model P388 Leukemia (intracerebral) in CD2F1 (CDF1) mice
Settings: endpoint: median survival time, higher = longer survival
Description: The antitumor activity of compounds was measured in mice bearing transplantable tumors. Survival or tumor size were measured and the results are expressed as the measurement made in the treated group (T) divided by the measurement made in the vehicle treated control group (C). The tumor model used in this assay is P388 Leukemia (intracerebral) in CD2F1 (CDF1) mice

[1] = dose: 12.5 mg/kg/injection, schedule: Q01DX009 (ip), vehicle: saline with Tween-80
[2] = dose: 25.0 mg/kg/injection, schedule: Q01DX009 (ip), vehicle: saline with Tween-80
[3] = dose: 50.0 mg/kg/injection, schedule: Q01DX009 (ip), vehicle: saline with Tween-80
[4] = dose: 100.0 mg/kg/injection, schedule: Q01DX009 (ip), vehicle: saline with Tween-80

Measured: T/C

CCCCCCCCCCCCCCCCCC(=O)N[C@@H](Cc1ccc(N(CCCl)CCCl)cc1)C(=O)NCCCCCC
inactive: dose: 2.12 mg/kg/injection, schedule: Q03HX008 (ip), vehicle: saline 105 % of control | dose: 4.24 mg/kg/injection, schedule: Q03HX008 (ip), vehicle: saline 105 % of control | dose: 8.48 mg/kg/injection, schedule: Q03HX008 (ip), vehicle: saline 105 % of control | dose: 16.95 mg/kg/injection, schedule: Q03HX008 (ip), vehicle: saline 94 % of control | dose: 33.9 mg/kg/injection, schedule: Q03HX008 (ip), vehicle: saline 105 % of control | dose: 67.8 mg/kg/injection, schedule: Q03HX008 (ip), vehicle: saline 110 % of control

N=C(N)SCc1c2ccccc2c(CSC(=N)N)c2ccccc12
inactive: dose: 2.5 mg/kg/injection, schedule: Q01DX005 (ip), vehicle: Klucel (hydroxypropylcellulose) (HPC) 93 % of control and 96 % of control | dose: 5.0 mg/kg/injection, schedule: Q01DX005 (ip), vehicle: Klucel (hydroxypropylcellulose) (HPC) 97 % of control and 104 % of control | dose: 10.0 mg/kg/injection, schedule: Q01DX005 (ip), vehicle: Klucel (hydroxypropylcellulose) (HPC) 97 % of control and 101 % of control | dose: 20.0 mg/kg/injection, schedule: Q01DX005 (ip), vehicle: Klucel (hydroxypropylcellulose) (HPC) 96 % of control and 104 % of control

CC(C)=CCC1=C(O)c2ccccc2C(=O)C1=O
inactive: dose: 32.0 mg/kg/injection, schedule: Q01DX005 (ip), vehicle: Klucel (hydroxypropylcellulose) (HPC) 104 % of control | dose: 64.0 mg/kg/injection, schedule: Q01DX005 (ip), vehicle: Klucel (hydroxypropylcellulose) (HPC) 104 % of control | dose: 128.0 mg/kg/injection, schedule: Q01DX005 (ip), vehicle: Klucel (hydroxypropylcellulose) (HPC) 95 % of control | dose: 256.0 mg/kg/injection, schedule: Q01DX005 (ip), vehicle: Klucel (hydroxypropylcellulose) (HPC) 92 % of control

CN(C)CC(=O)c1ccc(O)c(O)c1
inactive: dose: 100.0 mg/kg/injection, schedule: Q01DX005 (ip), vehicle: saline 103 % of control | dose: 100.0 mg/kg/injection, schedule: Q01DX005 (ip), vehicle: suspension in saline 93 % of control | dose: 200.0 mg/kg/injection, schedule: Q01DX005 (ip), vehicle: saline 108 % of control | dose: 200.0 mg/kg/injection, schedule: Q01DX005 (ip), vehicle: suspension in saline 104 % of control | dose: 400.0 mg/kg/injection, schedule: Q01DX005 (ip), vehicle: saline 104 % of control | dose: 400.0 mg/kg/injection, schedule: Q01DX005 (ip), vehicle: suspension in saline 107 % of control

CC1(CO)C(O)CCC2(C)C1CCC1CC3CC12CCC3(O)CO (stereo unspecified)
inactive: [1] 94 % of control | [2] 113 % of control | [3] 100 % of control | [4] 94 % of control | dose: 200.0 mg/kg/injection, schedule: Q01DX009 (ip), vehicle: saline with Tween-80 96 % of control

COc1cc(NCc2ccc3nc(N)nc(N)c3c2C)cc(OC)c1OC (tested in a mixture with another compound)
inactive: dose: 7.5 mg/kg/injection, schedule: Q01DX009 (ip), vehicle: water 100 % of control | dose: 15.0 mg/kg/injection, schedule: Q01DX009 (ip), vehicle: water 115 % of control | dose: 30.0 mg/kg/injection, schedule: Q01DX009 (ip), vehicle: water 117 % of control

CC1(C)N=C(N)N=C(N)N1c1ccc(CCCCc2ccc(Cl)c(S(=O)(=O)F)c2)c(Cl)c1
inactive: dose: 8.0 mg/kg/injection, schedule: Q01DX009 (ip), vehicle: saline 105 % of control | dose: 12.0 mg/kg/injection, schedule: Q01DX009 (ip), vehicle: saline 122 % of control | dose: 18.0 mg/kg/injection, schedule: Q01DX009 (ip), vehicle: saline 116 % of control | dose: 27.0 mg/kg/injection, schedule: Q01DX009 (ip), vehicle: saline 88 % of control

CN=S(=O)(OCCCCCOS(=O)(=NC)c1ccccc1)c1ccccc1 (stereo unspecified)
inactive: dose: 6.25 mg/kg/injection, schedule: Q01DX009 (ip), vehicle: saline with Tween-80 107 % of control | [1] 100 % of control | [2] 101 % of control | [3] 102 % of control | [4] 102 % of control

CCN(CC)CCCC(C)Nc1c2ccc(Cl)cc2nc2ccc(OC)cc12 (stereo unspecified)
inactive: dose: 8.0 mg/kg/injection, schedule: Q01DX009 (ip), vehicle: suspension in saline 96 % of control | dose: 16.0 mg/kg/injection, schedule: Q01DX009 (ip), vehicle: suspension in saline 96 % of control | dose: 32.0 mg/kg/injection, schedule: Q01DX009 (ip), vehicle: suspension in saline 100 % of control | dose: 64.0 mg/kg/injection, schedule: Q01DX009 (ip), vehicle: suspension in saline 88 % of control

Nc1nc2c(c(=O)[nH]1)N(C=O)C(CNc1ccc(C(=O)N[C@@H](CCC(=O)O)C(=O)O)cc1)CN2 (stereo partly specified)
inactive: dose: 128.0 mg/kg/injection, schedule: Q01DX005 (ip), vehicle: suspension in saline 98 % of control | dose: 256.0 mg/kg/injection, schedule: Q01DX005 (ip), vehicle: suspension in saline 97 % of control | dose: 512.0 mg/kg/injection, schedule: Q01DX005 (ip), vehicle: suspension in saline 100 % of control

CC(=O)O[C@]1(C(C)=O)CC[C@H]2[C@@H]3C[C@H](C)C4=CC(=O)CC[C@]4(C)[C@H]3CC[C@@]21C
inactive: dose: 8.0 mg/kg/injection, schedule: Q01DX009 (ip), vehicle: Klucel (hydroxypropylcellulose) (HPC) 92 % of control and 104 % of control | dose: 16.0 mg/kg/injection, schedule: Q01DX009 (ip), vehicle: Klucel (hydroxypropylcellulose) (HPC) 100 % of control and 102 % of control | dose: 32.0 mg/kg/injection, schedule: Q01DX009 (ip), vehicle: Klucel (hydroxypropylcellulose) (HPC) 93 % of control and 103 % of control | dose: 64.0 mg/kg/injection, schedule: Q01DX009 (ip), vehicle: Klucel (hydroxypropylcellulose) (HPC) 90 % of control and 99 % of control | dose: 128.0 mg/kg/injection, schedule: Q01DX009 (ip), vehicle: Klucel (hydroxypropylcellulose) (HPC) 90 % of control and 101 % of control | dose: 256.0 mg/kg/injection, schedule: Q01DX009 (ip), vehicle: Klucel (hydroxypropylcellulose) (HPC) 96 % of control and 103 % of control

Cc1cc(NC(=O)NCc2ccc(N3C(N)=NC(N)=NC3(C)C)cc2)ccc1S(=O)(=O)F
inactive: [1] 105 % of control | [2] 105 % of control | dose: 25.0 mg/kg/injection, schedule: Q04DX003 (ip), vehicle: saline with Tween-80 111 % of control | dose: 25.0 mg/kg/injection, schedule: Q04DX003 (ip), vehicle: saline 105 % of control | [3] 97 % of control | dose: 50.0 mg/kg/injection, schedule: Q04DX003 (ip), vehicle: saline with Tween-80 101 % of control | dose: 50.0 mg/kg/injection, schedule: Q04DX003 (ip), vehicle: saline 100 % of control | dose: 100.0 mg/kg/injection, schedule: Q04DX003 (ip), vehicle: saline with Tween-80 90 % of control | dose: 100.0 mg/kg/injection, schedule: Q04DX003 (ip), vehicle: saline 111 % of control | dose: 200.0 mg/kg/injection, schedule: Q04DX003 (ip), vehicle: saline with Tween-80 116 % of control | dose: 200.0 mg/kg/injection, schedule: Q04DX003 (ip), vehicle: saline 111 % of control | dose: 400.0 mg/kg/injection, schedule: Q04DX003 (ip), vehicle: saline 105 % of control

CS(C)=O
inactive: dose: 1000.0 mg/kg/injection, schedule: Q01DX005 (ip), vehicle: saline 104 % of control and 107 % of control | dose: 2000.0 mg/kg/injection, schedule: Q01DX005 (ip), vehicle: saline 100 % of control and 104 % of control | dose: 4000.0 mg/kg/injection, schedule: Q01DX005 (ip), vehicle: saline 100 % of control and 105 % of control | dose: 8000.0 mg/kg/injection, schedule: Q01DX005 (ip), vehicle: saline 105 % of control and 108 % of control

COS(C)(=O)=O
inactive: dose: 32.0 mg/kg/injection, schedule: Q01DX005 (ip), vehicle: saline 107 % of control and 108 % of control | dose: 64.0 mg/kg/injection, schedule: Q01DX005 (ip), vehicle: saline 97 % of control and 106 % of control | dose: 128.0 mg/kg/injection, schedule: Q01DX005 (ip), vehicle: saline 104 % of control and 105 % of control

CC1(C)N=C(N)N=C(N)N1c1ccc(CCC(=O)Nc2ccc(S(=O)(=O)F)cc2)c(Cl)c1
inactive: dose: 6.25 mg/kg/injection, schedule: Q01DX009 (ip), vehicle: saline 100 % of control | dose: 12.5 mg/kg/injection, schedule: Q01DX009 (ip), vehicle: saline 111 % of control | dose: 25.0 mg/kg/injection, schedule: Q01DX009 (ip), vehicle: saline 105 % of control | dose: 50.0 mg/kg/injection, schedule: Q01DX009 (ip), vehicle: saline 105 % of control

CCCCCCOC(=O)C(N)Cc1ccc(N(CCCl)CCCl)cc1 (stereo unspecified)
inactive: dose: 1.6 mg/kg/injection, schedule: Q03HX008 (ip), vehicle: saline 105 % of control | dose: 3.2 mg/kg/injection, schedule: Q03HX008 (ip), vehicle: saline 115 % of control | dose: 6.4 mg/kg/injection, schedule: Q03HX008 (ip), vehicle: saline 110 % of control
